Reference: PubChem BioAssay AID256 (DTP/NCI, 2004)
Where “and” joins values, the source holds several entries; their conditions need not be identical. Equal values may be shown once. Toxic doses and inconclusive results are not listed.

System: CD2F1 mice, L1210 leukemia ip, survival T/C
Test: NCI In Vivo Anticancer Drug Screen. Data for tumor model L1210 Leukemia (intraperitoneal) in CD2F1 (CDF1) mice
Conditions: endpoint: mean survival time, higher = longer survival
Procedure, shortened: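 Each value reflects a quotient of treated over vehicle control outcomes in mice with a transplanted tumor.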

[1] = dose: 100.0 mg/kg/injection, schedule: Q04DX003 (ip), vehicle: saline with Tween-80
[2] = dose: 200.0 mg/kg/injection, schedule: Q04DX003 (ip), vehicle: saline with Tween-80
[3] = dose: 400.0 mg/kg/injection, schedule: Q04DX003 (ip), vehicle: saline with Tween-80
[4] = dose: 100.0 mg/kg/injection, schedule: Q01DX009 (ip), vehicle: saline with Tween-80
[5] = dose: 200.0 mg/kg/injection, schedule: Q01DX009 (ip), vehicle: saline with Tween-80

For `CCc1ccc(S(=O)(=O)c2ccc(C)cc2)cc1`, the T/C (dose: 75.0 mg/kg/injection, schedule: Q04DX003 (ip), vehicle: saline) was 100 % of control, the T/C (dose: 150.0 mg/kg/injection, schedule: Q04DX003 (ip), vehicle: saline) was 100 % of control and the T/C (dose: 300.0 mg/kg/injection, schedule: Q04DX003 (ip), vehicle: saline) was 100 % of control.

`NCc1cnc(N)nc1N` was tested, and the T/C [1] was 98 % of control and the T/C [2] was 102 % of control.

With `CC(=O)Nc1nc(CCl)cs1` the T/C (dose: 100.0 mg/kg/injection, schedule: Q01DX001 (ip), vehicle: Klucel (hydroxypropylcellulose) (HPC)) was 92 % of control and the T/C (dose: 200.0 mg/kg/injection, schedule: Q01DX001 (ip), vehicle: Klucel (hydroxypropylcellulose) (HPC)) was 87 % of control.

For `O=C/C(Cl)=C(/Cl)C(=O)O`, the T/C (dose: 1.25 mg/kg/injection, schedule: Q01DX009 (ip), vehicle: saline with Tween-80) was 100 % of control, the T/C (dose: 2.5 mg/kg/injection, schedule: Q01DX009 (ip), vehicle: saline with Tween-80) was 98 % of control and the T/C (dose: 5.0 mg/kg/injection, schedule: Q01DX009 (ip), vehicle: saline with Tween-80) was 108 % of control. The T/C (dose: 6.25 mg/kg/injection, schedule: Q04DX002 (ip), vehicle: saline with Tween-80) was 103 % of control, the T/C (dose: 10.0 mg/kg/injection, schedule: Q01DX009 (ip), vehicle: saline with Tween-80) was 104 % of control and the T/C (dose: 12.5 mg/kg/injection, schedule: Q04DX002 (ip), vehicle: saline with Tween-80) was 107 % of control. For the same compound, the T/C (dose: 20.0 mg/kg/injection, schedule: Q01DX009 (ip), vehicle: saline with Tween-80) was 103 % of control and the T/C (dose: 25.0 mg/kg/injection, schedule: Q04DX002 (ip), vehicle: saline with Tween-80) was 111 % of control.

In the case of `CNNCCO`, the T/C (dose: 50.0 mg/kg/injection, schedule: Q01DX001 (ip), vehicle: saline) is reported as 104 % of control, the T/C (dose: 100.0 mg/kg/injection, schedule: Q01DX001 (ip), vehicle: saline) is reported as 101 % of control and the T/C (dose: 200.0 mg/kg/injection, schedule: Q01DX001 (ip), vehicle: saline) is reported as 101 % of control.

`O=C(O)c1ccccc1C(Br)C(Br)c1ccccc1` (stereo unspecified) was tested, and the T/C [1] was 101 % of control, the T/C [2] was 98 % of control and the T/C [3] was 106 % of control.

For `C/C=C(\C)C(C)(C#N)Nc1ccccc1` (stereo unspecified), the T/C (dose: 50.0 mg/kg/injection, schedule: Q01DX009 (ip), vehicle: saline with Tween-80) was 103 % of control, the T/C [4] was 100 % of control and the T/C [1] was 101 % of control. For the same compound, the T/C [5] was 102 % of control, the T/C [2] was 101 % of control and the T/C [3] was 95 % of control.

`Cc1cccc(NC(=S)NC(=O)c2ccccc2)n1` was tested, and the T/C (dose: 12.5 mg/kg/injection, schedule: Q01DX009 (ip), vehicle: other) was 91 % of control, the T/C (dose: 25.0 mg/kg/injection, schedule: Q01DX009 (ip), vehicle: other) was 92 % of control and the T/C (dose: 50.0 mg/kg/injection, schedule: Q01DX009 (ip), vehicle: other) was 88 % of control. For the same compound, the T/C (dose: 100.0 mg/kg/injection, schedule: Q01DX009 (ip), vehicle: other) was 88 % of control and the T/C (dose: 200.0 mg/kg/injection, schedule: Q01DX009 (ip), vehicle: other) was 91 % of control.

For `O=C(Cc1ccccc1)C(Br)C(Br)c1ccccc1` (stereo unspecified), the T/C (dose: 25.0 mg/kg/injection, schedule: Q01DX009 (ip), vehicle: saline with Tween-80) was 107 % of control and the T/C [1] was 92 % of control.

`CC(C(=O)c1ccc(-c2ccccc2)cc1)C(Cl)c1ccccc1` (stereo unspecified) was tested, and the T/C [1] was 95 % of control, the T/C [2] was 95 % of control and the T/C [3] was 100 % of control.

With `NC(=O)c1ncn(C2OC(COP(=O)(O)O)C(O)C2O)n1` (stereo unspecified) the T/C (dose: 12.5 mg/kg/injection, schedule: Q01DX005 (ip), vehicle: water) was 98 % of control, the T/C (dose: 25.0 mg/kg/injection, schedule: Q01DX005 (ip), vehicle: water) was 101 % of control and the T/C (dose: 50.0 mg/kg/injection, schedule: Q01DX005 (ip), vehicle: water) was 102 % of control. The T/C (dose: 100.0 mg/kg/injection, schedule: Q01DX005 (ip), vehicle: water) was 98 % of control and the T/C (dose: 200.0 mg/kg/injection, schedule: Q01DX005 (ip), vehicle: water) was 102 % of control.

For `O=c1[nH]c2c([N+](=O)[O-])cc(Br)cc2c2ccccc12`, the T/C (dose: 100.0 mg/kg/injection, schedule: Q01DX001 (ip), vehicle: carboxymethylcellulose (CMC)) was 100 % of control, the T/C (dose: 200.0 mg/kg/injection, schedule: Q01DX001 (ip), vehicle: carboxymethylcellulose (CMC)) was 94 % of control and the T/C (dose: 400.0 mg/kg/injection, schedule: Q01DX001 (ip), vehicle: carboxymethylcellulose (CMC)) was 100 % of control.

In the case of `CC(=O)NCc1cccc([N+](=O)[O-])c1`, the T/C (dose: 25.0 mg/kg/injection, schedule: Q01DX005 (ip), vehicle: suspension in saline) is reported as 97 % of control, the T/C (dose: 50.0 mg/kg/injection, schedule: Q01DX005 (ip), vehicle: suspension in saline) is reported as 106 % of control and the T/C (dose: 100.0 mg/kg/injection, schedule: Q01DX005 (ip), vehicle: suspension in saline) is reported as 105 % of control. For the same compound, the T/C (dose: 200.0 mg/kg/injection, schedule: Q01DX005 (ip), vehicle: suspension in saline) was 95 % of control and the T/C (dose: 400.0 mg/kg/injection, schedule: Q01DX005 (ip), vehicle: suspension in saline) was 95 % of control.

With `CC(=O)OCC(=O)[C@@]12OC(C)(C)O[C@@H]1C[C@H]1[C@@H]3CC(C=O)=C4C=C(OCCCl)CC[C@]4(C)[C@@]3(F)[C@@H](O)C[C@@]12C` the T/C (dose: 100.0 mg/kg/injection, schedule: Q04DX003 (ip), vehicle: acetone) was 103 % of control, the T/C (dose: 200.0 mg/kg/injection, schedule: Q04DX003 (ip), vehicle: acetone) was 105 % of control and the T/C (dose: 400.0 mg/kg/injection, schedule: Q04DX003 (ip), vehicle: acetone) was 102 % of control.

For `CCOC(=O)C1C2OC(=O)C(C(=O)C2CN(CCCl)CCCl)C1C1CC=C(CC2=CCC(C3C4C(=O)OC(C(CN(CCCl)CCCl)C4=O)C3C(=O)OCC)CC2)CC1` (stereo unspecified), the T/C (dose: 6.25 mg/kg/injection, schedule: Q01DX009 (ip), vehicle: Klucel (hydroxypropylcellulose) (HPC)) was 121 % of control, the T/C (dose: 12.5 mg/kg/injection, schedule: Q01DX009 (ip), vehicle: Klucel (hydroxypropylcellulose) (HPC)) was 121 % of control and the T/C (dose: 50.0 mg/kg/injection, schedule: Q01DX009 (ip), vehicle: Klucel (hydroxypropylcellulose) (HPC)) was 154 % of control and 162 % of control. For the same compound, the T/C (dose: 100.0 mg/kg/injection, schedule: Q01DX009 (ip), vehicle: Klucel (hydroxypropylcellulose) (HPC)) was 154 % of control and 232 % of control, the T/C (dose: 200.0 mg/kg/injection, schedule: Q01DX009 (ip), vehicle: Klucel (hydroxypropylcellulose) (HPC)) was 111 % of control and the T/C (dose: 400.0 mg/kg/injection, schedule: Q01DX009 (ip), vehicle: Klucel (hydroxypropylcellulose) (HPC)) was 88 % of control.

`O=C(O)c1ccc2cc(O)ccc2c1` was tested, and the T/C (dose: 100.0 mg/kg/injection, schedule: Q01DX009 (ip), vehicle: saline) was 100 % of control and the T/C (dose: 200.0 mg/kg/injection, schedule: Q01DX009 (ip), vehicle: saline) was 94 % of control.

For `COc1cc(/C=C/c2ccc3ccccc3n2)cc(OC)c1OC`, the T/C [4] was 94 % of control, the T/C [1] was 104 % of control and the T/C [5] was 91 % of control. For the same compound, the T/C [2] was 96 % of control, the T/C (dose: 400.0 mg/kg/injection, schedule: Q01DX009 (ip), vehicle: saline with Tween-80) was 89 % of control and the T/C [3] was 98 % of control.

With `c1ccc(NC2CCN(C3(c4ccccc4)CCCCC3)CC2)cc1` the T/C (dose: 25.0 mg/kg/injection, schedule: Q04DX002 (ip), vehicle: saline) was 97 % of control and the T/C (dose: 50.0 mg/kg/injection, schedule: Q04DX002 (ip), vehicle: saline) was 94 % of control.

In the case of `ClCC(CCl)N1CCCCC1`, the T/C (dose: 6.25 mg/kg/injection, schedule: Q01DX001 (ip), vehicle: saline) is reported as 103 % of control, the T/C (dose: 6.25 mg/kg/injection, schedule: Q01DX009 (ip), vehicle: saline sonified) is reported as 102 % of control and the T/C (dose: 6.25 mg/kg/injection, schedule: Q04DX003 (ip), vehicle: saline) is reported as 101 % of control. For the same compound, the T/C (dose: 12.5 mg/kg/injection, schedule: Q01DX001 (ip), vehicle: saline) was 104 % of control, the T/C (dose: 12.5 mg/kg/injection, schedule: Q01DX009 (ip), vehicle: saline sonified) was 109 % of control and the T/C (dose: 12.5 mg/kg/injection, schedule: Q04DX003 (ip), vehicle: saline) was 104 % of control. For the same compound, the T/C (dose: 25.0 mg/kg/injection, schedule: Q01DX001 (ip), vehicle: saline) was 107 % of control and the T/C (dose: 25.0 mg/kg/injection, schedule: Q04DX003 (ip), vehicle: saline) was 106 % of control.

With `CN(C)c1nc2c(c(=O)n(C)c(=O)n2C)n1C` the T/C (dose: 12.5 mg/kg/injection, schedule: Q01DX005 (ip), vehicle: distilled water + Tween-80) was 94 % of control, the T/C (dose: 25.0 mg/kg/injection, schedule: Q01DX005 (ip), vehicle: distilled water + Tween-80) was 93 % of control and the T/C (dose: 50.0 mg/kg/injection, schedule: Q01DX005 (ip), vehicle: distilled water + Tween-80) was 93 % of control. For the same compound, the T/C (dose: 100.0 mg/kg/injection, schedule: Q01DX005 (ip), vehicle: distilled water + Tween-80) was 88 % of control.
